# Where two headings read alike, the source gives them in different places.
# Assays:
# tuberculosis patients = system: tuberculosis patients; set-up: method as in PMID 5535617; conditions: monotherapy; after an 8-week regimen; cited from earlier work
# K. pneumoniae NCTC 9633 = assay: Non-mycobacterial REMA assay; type: cell-based; conditions: Klebsiella pneumoniae, NCTC9633, read-out: Minimum inhibitory concentration 95%
# A. baumannii NCTC 12156 = assay: Non-mycobacterial REMA assay; type: cell-based; conditions: Acinetobacter baumannii, NCTC12156, read-out: Minimum inhibitory concentration 95%
# S. agalactiae NCTC 8181 = assay: Non-mycobacterial REMA assay; type: cell-based; conditions: Streptococcus agalactiae, NCTC8181, read-out: Minimum inhibitory concentration 95%
# M. bovis BCG = conditions: microplate alamar blue assay; cited from earlier work
# Mtb mc^27902 pMV261 [1] = assay: EtBr accumulation assay; type: cell-based, Mycobacterium tuberculosis; conditions: compound at ½ the MIC; absence or presence of glucose; 60 min
# E. faecalis NCTC 775 = assay: Non-mycobacterial REMA assay; type: cell-based; conditions: Enterococcus faecalis, NCTC775, read-out: Minimum inhibitory concentration 95%
# [2] = system: RAW264.7 murine macrophage cells; assay: cells; type: cell-based
# B. cereus NCTC 7464 = assay: Non-mycobacterial REMA assay; type: cell-based; conditions: Bacillus cereus, NCTC7464, read-out: Minimum inhibitory concentration 95%
# S. aureus NCTC 2981 = assay: Non-mycobacterial REMA assay; type: cell-based; conditions: Staphylococcus aureus, NCTC2981, read-out: Minimum inhibitory concentration 95%
# [3] = system: M. bovis BCG containing the pVVdesA3 overexpression plasmid; set-up: method as in PMID 14559907; conditions: M. bovis BCG with pVVdesA3 overexpression plasmid; microplate alamar blue assay; cited from earlier work
# E. faecium NCTC 7171 = assay: Non-mycobacterial REMA assay; type: cell-based; conditions: Enterococcus faecium, NCTC7171, read-out: Minimum inhibitory concentration 95%
# [4] = system: HepG2 human liver cancer cell line; assay: MTS cytotoxicity assay, liver cells; type: cell-based; conditions: 96 h, read-out: MTS percentage survival @ 100 µM
# S. pyogenes NCTC 8198 = assay: Non-mycobacterial REMA assay; type: cell-based; conditions: Streptococcus pyogenes, NCTC8198, read-out: Minimum inhibitory concentration 95%
# P. aeruginosa DSM 19880 = assay: Non-mycobacterial REMA assay; type: cell-based; conditions: Pseudomonas aeruginosa, DSM19880, read-out: Minimum inhibitory concentration 95%
# S. enterica NCTC 6754 = assay: Non-mycobacterial REMA assay; type: cell-based; conditions: Salmonella enterica, NCTC6754, read-out: Minimum inhibitory concentration 95%
# Method: (§1) Bacterial minimum inhibition concentrations (MIC) were determined using the Resazurin Microtiter Assay (REMA) method according to Palomino et al.[28] Stock solutions of the tested compounds were prepared in sterile dimethyl sulfoxide (DMSO), then diluted in 7H9OPALPen^1Cyc^10(Kan^25) to obtain a final drug concentration range of 32–0.032 μg/mL. A suspension of the test Mycobacterium was cultured in 7H9OPALPen^1Cyc^10(Kan^25) containing 0.05% v/v Tween^80 for one week at 37 °C, 5% CO2. The bacterial suspension was adjusted to 0.5 McFarland and diluted in 7H9OPALPen^1Cyc^10(Kan^25) 1:25. 100 μL of the inoculum was added to each well of a 96-well microplate together with 100 μL of the compound titration. The plate was incubated at 37 °C, 5% CO2. After 5 days, 10.5 μL 0.1% (w/v) sterile resazurin (solubilised in sterile PBS containing 0.02% v/v Tween^80) was added. Reduced resazurin was detected using fluorescence (Ex/Em 530/590 nm) in a FLUOstar Optima, BMG Labtech. All titre measurements were plotted in SigmaPlot™ and 4-parameter logistic (4PL) model regressions conducted. The relative MIC95 of each curve was calculated and averaged (Table 1). Testing was performed in duplicate with two independent biological repeats. […] Though, for these cultures, dilutions were performed at 1:125 prior to inoculation of the plate and incubation for 4 h (Supplementary Table 3). Known antitubercular agents used in this study were rifampicin (RIF), isoniazid (INH), ISO, EMB, ethionamide (ETH), linezolid (LZD), delamanid (DEL) and moxifloxacin (MOX).
# E. coli K12 = assay: Non-mycobacterial REMA assay; type: cell-based; conditions: Escherichia coli, read-out: Minimum inhibitory concentration 95%
# Method: as §1
# Mtb mc^27902 pMV261 [5] = type: cell-based, Mycobacterium tuberculosis
# Mtb mc^27902 pMV261 [6] = assay: microbe, parasite or virus in culture; type: cell-based; conditions: Mycobacterium tuberculosis
# E. cloacae NCTC 10005 = assay: Non-mycobacterial REMA assay; type: cell-based; conditions: Enterobacter cloacae, NCTC10005, read-out: Minimum inhibitory concentration 95%
# [7] = system: AC10 hybrid adult ventricular cardiomyocytes; assay: MTS cytotoxicity assay, cardiomyocytes; type: cell-based; conditions: Homo sapiens, AC10 cardiac, 96 h, read-out: MTS percentage survival @ 100 µM
smiles,measurement,setting,value
"CC(C)CCOc1ccc(NC(=S)Nc2ccc(OCCC(C)C)cc2)cc1 [ISO, 4,4′-diisoamyloxydiphenylthiourea]",patients testing sputum negative,tuberculosis patients,25%
same,MIC,K. pneumoniae NCTC 9633,> 32 µg/mL
same,MIC,A. baumannii NCTC 12156,> 32 µg/mL
same,MIC,S. agalactiae NCTC 8181,> 32 µg/mL
same,MIC,M. bovis BCG,3.0 µg/mL
same,accumulation of EtBr,Mtb mc^27902 pMV261 [1],increased accumulation of EtBr
same,MIC,E. faecalis NCTC 775,> 32 µg/mL
same,viability at 100 µM,"[2]; Mus musculus, RAW264.7, 96 h, RAW264.7 macrophage, 100 µM, 96 h, read-out: MTS percentage survival @ 100 µM",34.5%
same,IC50,"[2]; Mus musculus, RAW264.7 macrophages, 0 to 100 µM, read-out: IC50 (cell viability, MTS assay)",18.8 µM
same,selectivity index (SI),[2]; from RAW264.7 IC50 and Mtb MIC95,38
same,MIC,B. cereus NCTC 7464,> 32 µg/mL
same,MIC,S. aureus NCTC 2981,> 32 µg/mL
same,MIC,[3],6.0 µg/mL
same,MIC,E. faecium NCTC 7171,> 32 µg/mL
same,viability at 100 µM,[4],95.4 ± 4.3%
same,MIC,S. pyogenes NCTC 8198,> 32 µg/mL
same,MIC,P. aeruginosa DSM 19880,> 32 µg/mL
same,MIC,S. enterica NCTC 6754,> 32 µg/mL
same,MIC,E. coli K12,> 32 µg/mL
same,TDM and glucose monomycolate levels (TLC),Mtb mc^27902 pMV261 [5],decrease in TDM and glucose monomycolate
same,"effect on mycolic acid biosynthesis (FAMEs/MAMEs, TLC/autoradiography)",Mtb mc^27902 pMV261 [5],mycolate depletion was observed in both the cell wall-bound and whole cell analysis
same,TMM levels (TLC),"Mtb mc^27902 pMV261 [5]; at the highest concentrations, […]",not observed
same,MIC,"Mtb mc^27902 pMV261 [6]; mc^27902 pMV261, REMA, read-out: Mtb MIC95",0.2 µg/mL
same,MIC,"Mtb mc^27902 pMV261 [6]; values used for the SI, in brackets, […], read-out: MIC95",0.2 µg/mL
same,MIC,"Mtb mc^27902 pMV261 [6]; values used for the SI, […], read-out: MIC95",0.49 µM
same,MIC,E. cloacae NCTC 10005,> 32 µg/mL
same,viability at 100 µM,[7],38.9 ± 13.9%

# Reference: PMC12096669, “Structural isomerisation affects the antitubercular activity of adamantyl-isoxyl adducts” (Journal of Enzyme Inhibition and Medicinal Chemistry, 2025)
